Experimental data reported in patent US9211310B2, “Use of a Chinese medicine composition in preparing medicaments for treating secondary prevention of myocardial infarction” (TASLY PHARMACEUTICAL GROUP CO., LTD, priority 2010, dated 2015).

System: patients after acute myocardial infarction
Assay: Life quality, Seattle Angina Questionnaire (SAQ), same clinical trial
Type: in vivo, human
Settings: PP
From the text: 3508 patients who were in accordance with the diagnostic standards of AMI for 28 days to 2 years and differentiated as Qi deficiency and blood stagnation syndrome by TCM were studied. 0.5 g Chinese medicine composition prepared by the method of EXAMPLE 1 (Coded as QSYQ) was administrated half an hour after meal, 3 times per day.
There were 19 questions in the Seattle angina questionnaire (SAQ), including 5 parts: physical limitation (PL), anginal stability (AS), anginal frequency (AF), treatment satisfaction (TS) and disease perception (DP). After being given necessary explanation by doctors, the questions were answered independently by patients.
They included the overall survival time, angina pectoris score, TCM symptom score and life quality score, where angina pectoris score, TCM symptom score and life quality score were evaluated at randomization, in 1st, 3rd, 6th, 9th, 12th month after treatment and 18th month after follow-up.
All evaluation results of SAQ were described during the period of observation, and Wilcoxon rank sum test was used for inter-group comparison.
The evaluation results in the SAQ were depicted in different observations, and inter-group comparison was tested by Wilcoxon Rank-sum test.

CC(=O)Oc1ccccc1C(=O)O [Control group, aspirine]
SAQ Question 1-4: Not limited, percent of patients (Follow-up): (53.63%)
SAQ Question 1-4: Other reasons, number of patients (Follow-up): 10
SAQ Question 1-4: Other reasons, percent of patients (Follow-up): (0.71%)
SAQ Question 1-4: Severely limited, number of patients (Follow-up): 5
SAQ Question 1-4: Severely limited, percent of patients (Follow-up): (0.36%)
SAQ Question 1-4: Slightly limited, number of patients (Follow-up): 428
SAQ Question 1-4: Slightly limited, percent of patients (Follow-up): (30.44%)
SAQ Question 1-5: Mildly limited, number of patients (Follow-up): 181
SAQ Question 1-5: Mildly limited, percent of patients (Follow-up): (12.87%)
SAQ Question 1-5: Moderately limited, number of patients (Follow-up): 57
SAQ Question 1-5: Moderately limited, percent of patients (Follow-up): (4.05%)
SAQ Question 1-5: Not limited, number of patients (Follow-up): 765
SAQ Question 1-5: Not limited, percent of patients (Follow-up): (54.41%)
SAQ Question 1-5: Other reasons, number of patients (Follow-up): 8
SAQ Question 1-5: Other reasons, percent of patients (Follow-up): (0.57%)
SAQ Question 1-5: Severely limited, number of patients (Follow-up): 9
SAQ Question 1-5: Severely limited, percent of patients (Follow-up): (0.64%)
SAQ Question 1-5: Slightly limited, number of patients (Follow-up): 386
SAQ Question 1-5: Slightly limited, percent of patients (Follow-up): (27.45%)
SAQ Question 1-9: Mildly limited, % of cases (Follow-up): (20.25%)
SAQ Question 1-9: Mildly limited, cases (Follow-up): 276
SAQ Question 1-9: Moderately limited, % of cases (Follow-up): (21.13%)
SAQ Question 1-9: Moderately limited, cases (Follow-up): 288
SAQ Question 1-9: Not limited, % of cases (Follow-up): (6.09%)
SAQ Question 1-9: Not limited, cases (Follow-up): 83
SAQ Question 1-9: Other reasons, % of cases (Follow-up): (4.77%)
SAQ Question 1-9: Other reasons, cases (Follow-up): 65
SAQ Question 1-9: Severely-limited, % of cases (Follow-up): (27.29%)
SAQ Question 1-9: Severely-limited, cases (Follow-up): 372
SAQ Question 1-9: Slightly limited, % of cases (Follow-up): (20.47%)
SAQ Question 1-9: Slightly limited, cases (Follow-up): 279
8th question: Dissatisfied, patients (%) (1 month after treatment): (0.13%)
8th question: Highly satisfied, patients (%) (1 month after treatment): (17.41%)
8th question: Mostly dissatisfied, patients (%) (1 month after treatment): (4.23%)
8th question: Mostly satisfied, patients (%) (1 month after treatment): (48.99%)
8th question: Partly satisfied, patients (%) (1 month after treatment): (29.23%)
9th question: Few, patients (%) (1 month after treatment): (25.86%)
9th question: Mild, patients (%) (1 month after treatment): (35.93%)
9th question: Moderate, patients (%) (1 month after treatment): (18.94%)
9th question: Severe, patients (%) (1 month after treatment): (2.01%)
9th question: Uneffective, patients (%) (1 month after treatment): (17.26%)
10th question: Dissatisfied, patients (%) (1 month after treatment): (22.24%)
10th question: Highly satisfied, patients (%) (1 month after treatment): (4.23%)
10th question: Mostly dissatisfied, patients (%) (1 month after treatment): (23.12%)
10th question: Mostly satisfied, patients (%) (1 month after treatment): (19.83%)
10th question: Partly satisfied, patients (%) (1 month after treatment): (30.58%)
11th question: Continuously worried, patients (%) (1 month after treatment): (6.04%)
11th question: No worried, patients (%) (1 month after treatment): (4.84%)
11th question: Occasionally worried, patients (%) (1 month after treatment): (41.24%)
11th question: Often worried, patients (%) (1 month after treatment): (21.76%)
11th question: Seldom worried, patients (%) (1 month after treatment): (26.12%)
SAQ 4th question, 1-2 times per week: % of patients (1 month after treatment): (17.41%)
SAQ 4th question, 1-2 times per week: number of patients (1 month after treatment): 259
SAQ 4th question, 1-3 times per day: % of patients (1 month after treatment): (6.52%)
SAQ 4th question, 1-3 times per day: number of patients (1 month after treatment): 97
SAQ 4th question, <1 time per week: % of patients (1 month after treatment): (9.07%)
SAQ 4th question, <1 time per week: number of patients (1 month after treatment): 135
SAQ 4th question, Not used: % of patients (1 month after treatment): (53.23%)
SAQ 4th question, Not used: number of patients (1 month after treatment): 792
SAQ 4th question, ≧3 times per week: % of patients (1 month after treatment): (13.71%)
SAQ 4th question, ≧3 times per week: number of patients (1 month after treatment): 204
SAQ 4th question, ≧4 times per day: % of patients (1 month after treatment): (0.07%)
SAQ 4th question, ≧4 times per day: number of patients (1 month after treatment): 1
SAQ 5th question, Few: % of patients (1 month after treatment): (21.67%)
SAQ 5th question, Few: number of patients (1 month after treatment): 322
SAQ 5th question, Mild: % of patients (1 month after treatment): (28.94%)
SAQ 5th question, Mild: number of patients (1 month after treatment): 430
SAQ 5th question, Moderate: % of patients (1 month after treatment): (18.24%)
SAQ 5th question, Moderate: number of patients (1 month after treatment): 271
SAQ 5th question, None: % of patients (1 month after treatment): (25.44%)
SAQ 5th question, None: number of patients (1 month after treatment): 378
SAQ 5th question, Not medicated by doctors: % of patients (1 month after treatment): (3.57%)
SAQ 5th question, Not medicated by doctors: number of patients (1 month after treatment): 53
SAQ 5th question, Severe: % of patients (1 month after treatment): (2.15%)
SAQ 5th question, Severe: number of patients (1 month after treatment): 32
SAQ 6th question, Dissatisfied: % of patients (1 month after treatment): (0.20%)
SAQ 6th question, Dissatisfied: number of patients (1 month after treatment): 3
SAQ 6th question, Highly consent: % of patients (1 month after treatment): (17.86%)
SAQ 6th question, Highly consent: number of patients (1 month after treatment): 266
SAQ 6th question, Mostly dissatisfied: % of patients (1 month after treatment): (4.37%)
SAQ 6th question, Mostly dissatisfied: number of patients (1 month after treatment): 65
SAQ 6th question, Mostly satisfied: % of patients (1 month after treatment): (47.88%)
SAQ 6th question, Mostly satisfied: number of patients (1 month after treatment): 713
SAQ 6th question, Partly satisfied: % of patients (1 month after treatment): (29.68%)
SAQ 6th question, Partly satisfied: number of patients (1 month after treatment): 442
SAQ 7th question, Dissatisfied: % of patients (1 month after treatment): (0.13%)
SAQ 7th question, Dissatisfied: number of patients (1 month after treatment): 2
SAQ 7th question, Highly satisfied: % of patients (1 month after treatment): (23.40%)
SAQ 7th question, Highly satisfied: number of patients (1 month after treatment): 348
SAQ 7th question, Mostly dissatisfied: % of patients (1 month after treatment): (3.36%)
SAQ 7th question, Mostly dissatisfied: number of patients (1 month after treatment): 50
SAQ 7th question, Mostly satisfied: % of patients (1 month after treatment): (48.69%)
SAQ 7th question, Mostly satisfied: number of patients (1 month after treatment): 724
SAQ 7th question, Partly satisfied: % of patients (1 month after treatment): (24.41%)
SAQ 7th question, Partly satisfied: number of patients (1 month after treatment): 363
SAQ Question 1-1 Mildly limited, number of patients (1 month after treatment): 21
SAQ Question 1-1 Mildly limited, percent of patients (1 month after treatment): (1.41%)
SAQ Question 1-1 Moderately limited, number of patients (1 month after treatment): 9
SAQ Question 1-1 Moderately limited, percent of patients (1 month after treatment): (0.60%)
SAQ Question 1-1 Not limited, number of patients (1 month after treatment): 1375
SAQ Question 1-1 Not limited, percent of patients (1 month after treatment): (92.41%)
SAQ Question 1-1 Other reasons, number of patients (1 month after treatment): 2
SAQ Question 1-1 Other reasons, percent of patients (1 month after treatment): (0.13%)
SAQ Question 1-1 Severely limited, number of patients (1 month after treatment): 1
SAQ Question 1-1 Severely limited, percent of patients (1 month after treatment): (0.07%)
SAQ Question 1-1 Slightly limited, number of patients (1 month after treatment): 80
SAQ Question 1-1 Slightly limited, percent of patients (1 month after treatment): (5.38%)
SAQ Question 1-2 Mildly limited, number of patients (1 month after treatment): 30
SAQ Question 1-2 Mildly limited, percent of patients (1 month after treatment): (2.02%)
SAQ Question 1-2 Moderately limited, number of patients (1 month after treatment): 10
SAQ Question 1-2 Moderately limited, percent of patients (1 month after treatment): (0.67%)
SAQ Question 1-2 Not limited, number of patients (1 month after treatment): 1345
SAQ Question 1-2 Not limited, percent of patients (1 month after treatment): (90.39%)
SAQ Question 1-2 Other reasons, number of patients (1 month after treatment): 4
SAQ Question 1-2 Other reasons, percent of patients (1 month after treatment): (0.27%)
SAQ Question 1-2 Severely limited, number of patients (1 month after treatment): 0
SAQ Question 1-2 Severely limited, percent of patients (1 month after treatment): (0.00%)
SAQ Question 1-2 Slightly limited, number of patients (1 month after treatment): 99
SAQ Question 1-2 Slightly limited, percent of patients (1 month after treatment): (6.65%)
SAQ Question 1-6: Mildly limited, patients (%) (1 month after treatment): (18.24%)
SAQ Question 1-6: Moderately limited, patients (%) (1 month after treatment): (15.53%)
SAQ Question 1-6: Not limited, patients (%) (1 month after treatment): (29.08%)
SAQ Question 1-6: Other reasons, patients (%) (1 month after treatment): (0.88%)
SAQ Question 1-6: Severely limited, patients (%) (1 month after treatment): (4.75%)
SAQ Question 1-6: Slightly limited, patients (%) (1 month after treatment): (31.53%)
SAQ Question 1-7: Mildly limited, patients (%) (1 month after treatment): (23.85%)
SAQ Question 1-7: Moderately limited, patients (%) (1 month after treatment): (17.55%)
SAQ Question 1-7: Not limited, patients (%) (1 month after treatment): (12.34%)
SAQ Question 1-7: Other reasons, patients (%) (1 month after treatment): (3.08%)
SAQ Question 1-7: Severely limited, patients (%) (1 month after treatment): (17.75%)
SAQ Question 1-7: Slightly limited, patients (%) (1 month after treatment): (25.43%)
SAQ Question 1-8: Mildly limited, patients (%) (1 month after treatment): (24.83%)
SAQ Question 1-8: Moderately limited, patients (%) (1 month after treatment): (20.79%)
SAQ Question 1-8: Not limited, patients (%) (1 month after treatment): (8.28%)
SAQ Question 1-8: Other reasons, patients (%) (1 month after treatment): (2.87%)
SAQ Question 1-8: Severely limited, patients (%) (1 month after treatment): (22.37%)
SAQ Question 1-8: Slightly limited, patients (%) (1 month after treatment): (20.86%)
8th question: Dissatisfied, patients (%) (3 months after treatment): (0.07%)
8th question: Highly satisfied, patients (%) (3 months after treatment): (19.43%)
8th question: Mostly dissatisfied, patients (%) (3 months after treatment): (2.85%)
8th question: Mostly satisfied, patients (%) (3 months after treatment): (52.31%)
8th question: Partly satisfied, patients (%) (3 months after treatment): (25.34%)
9th question: Few, patients (%) (3 months after treatment): (31.56%)
9th question: Mild, patients (%) (3 months after treatment): (32.99%)
9th question: Moderate, patients (%) (3 months after treatment): (15.51%)
9th question: Severe, patients (%) (3 months after treatment): (0.95%)
9th question: Uneffective, patients (%) (3 months after treatment): (18.98%)
10th question: Dissatisfied, patients (%) (3 months after treatment): (20.88%)
10th question: Highly satisfied, patients (%) (3 months after treatment): (4.90%)
10th question: Mostly dissatisfied, patients (%) (3 months after treatment): (22.38%)
10th question: Mostly satisfied, patients (%) (3 months after treatment): (23.47%)
10th question: Partly satisfied, patients (%) (3 months after treatment): (28.37%)
11th question: Continuously worried, patients (%) (3 months after treatment): (4.62%)
11th question: No worried, patients (%) (3 months after treatment): (4.76%)
11th question: Occasionally worried, patients (%) (3 months after treatment): (41.47%)
